# Experimental data published in ChEMBL document CHEMBL1201861, “Genomics of Drug Sensitity in Cancer screening data, Wellcome Trust Sanger Institute”.
# Counter-ions that a name gives are not always drawn.
# Key:
# [1] = test system: RD; assay: cells; assay type: functional, cell-based, Homo sapiens
# Description: SANGER: Inhibition of human RD cell growth in a cell viability assay.
# [2] = test system: ARH-77; assay: cells; assay type: functional, cell-based, Homo sapiens;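 note: growth inhibition of ARH-77 cells, read out by a cell viability assay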
# Description: SANGER: Inhibition of human ARH-77 cell growth in a cell viability assay.
# [3] = test system: CAPAN-1; assay: cells; assay type: functional, cell-based, Homo sapiens;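 note: growth suppression of CAPAN-1 cells, read out by a cell viability assay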
# Description: SANGER: Inhibition of human CAPAN-1 cell growth in a cell viability assay.
# [4] = test system: CAL-72; assay: cells; assay type: functional, cell-based, Homo sapiens;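 note: cell viability assay measuring inhibition of proliferation in the CAL-72 cell line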
# Description: SANGER: Inhibition of human CAL-72 cell growth in a cell viability assay.
# [5] = test system: HCC1395; assay: cells; assay type: functional, cell-based, Homo sapiens;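 note: growth inhibition of HCC1395 cells, read out by a cell viability assay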
# Description: SANGER: Inhibition of human HCC1395 cell growth in a cell viability assay.
# [6] = test system: DMS-273; assay: cells; assay type: functional, cell-based, Homo sapiens
# Description: SANGER: Inhibition of human DMS-273 cell growth in a cell viability assay.
# [7] = test system: COR-L279; assay: SANGER: Inhibition of human COR-L279 cell growth in a cell viability assay.; assay type: functional, cell-based
# [8] = test system: SW48; assay: cells; assay type: functional, cell-based, Homo sapiens;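 note: growth inhibition of SW48 cells, read out with a cell viability assay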
# Description: SANGER: Inhibition of human SW48 cell growth in a cell viability assay.
# [9] = test system: SW948; assay: cells; assay type: functional, cell-based, Homo sapiens;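 note: growth inhibition of SW948 cells, read out with a cell viability assay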
# Description: SANGER: Inhibition of human SW948 cell growth in a cell viability assay.
# [10] = test system: LB647-SCLC; assay: cells; assay type: functional, cell-based, Homo sapiens;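 note: cell growth inhibition, read out by a viability assay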
# Description: SANGER: Inhibition of human LB647-SCLC cell growth in a cell viability assay.
# [11] = test system: SiHa; assay: cells; assay type: functional, cell-based, Homo sapiens;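 note: Viability-based readout of growth inhibition in SiHa cells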
# Description: SANGER: Inhibition of human SiHa cell growth in a cell viability assay.
# [12] = test system: HTC-C3; assay: cells; assay type: functional, cell-based, Homo sapiens;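 note: inhibition of cell growth, read out with a cell viability assay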
# Description: SANGER: Inhibition of human HTC-C3 cell growth in a cell viability assay.
# [13] = test system: CAL-120; assay: cells; assay type: functional, cell-based, Homo sapiens;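 note: cell growth inhibition, read out as cell viability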
# Description: SANGER: Inhibition of human CAL-120 cell growth in a cell viability assay.
# [14] = test system: J82; assay: cells; assay type: functional, cell-based, Homo sapiens;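 note: growth inhibition of J82 cells, read out with a cell viability assay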
# Description: SANGER: Inhibition of human J82 cell growth in a cell viability assay.
# [15] = test system: JIYOYE; assay: cells; assay type: functional, cell-based, Homo sapiens
# Description: SANGER: Inhibition of human JiyoyeP-2003 cell growth in a cell viability assay.
# [16] = test system: EFO-27; assay: cells; assay type: functional, cell-based, Homo sapiens;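 note: growth inhibition of EFO-27 cells, read out with a cell viability assay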
# Description: SANGER: Inhibition of human EFO-27 cell growth in a cell viability assay.
# [17] = test system: 23132-87; assay: cells; assay type: functional, cell-based, Homo sapiens
# Description: SANGER: Inhibition of human 23132-87 cell growth in a cell viability assay.
# [18] = test system: MHH-CALL-2; assay: cells; assay type: functional, cell-based, Homo sapiens;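 note: growth inhibition of the cell line, read out in a cell viability assay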
# Description: SANGER: Inhibition of human MHH-CALL-2 cell growth in a cell viability assay.
# [19] = test system: NCI-H2452; assay: cells; assay type: functional, cell-based, Homo sapiens;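 note: growth inhibition of NCI-H2452 cells, read out with a cell viability assay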
# Description: SANGER: Inhibition of human NCI-H2452 cell growth in a cell viability assay.
# [20] = test system: OE19; assay: cells; assay type: functional, cell-based, Homo sapiens;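 note: growth inhibition of OE19 cells, measured through a cell viability read-out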
# Description: SANGER: Inhibition of human OE19 cell growth in a cell viability assay.
# [21] = test system: ST486; assay: SANGER: Inhibition of human ST486 cell growth in a cell viability assay.; assay type: functional, cell-based
# [22] = test system: BCPAP; assay: cells; assay type: functional, cell-based, Homo sapiens;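 note: growth inhibition of BCPAP cells, read out in a cell viability assay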
# Description: SANGER: Inhibition of human BCPAP cell growth in a cell viability assay.
# [23] = test system: 5637; assay: cells; assay type: functional, cell-based, Homo sapiens
# Description: SANGER: Inhibition of human 5637 cell growth in a cell viability assay.
# [24] = test system: HCC1419; assay: cells; assay type: functional, cell-based, Homo sapiens;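 note: growth inhibition of human HCC1419 cells, read out as cell viability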
# Description: SANGER: Inhibition of human HCC1419 cell growth in a cell viability assay.
# [25] = test system: NCI-H441; assay: cells; assay type: functional, cell-based, Homo sapiens;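 note: growth inhibition of NCI-H441 cells, read out with a cell viability assay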
# Description: SANGER: Inhibition of human NCI-H441 cell growth in a cell viability assay.
# [26] = test system: SW1710; assay: cells; assay type: functional, cell-based, Homo sapiens;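 note: growth inhibition of SW1710 cells, determined with a cell viability assay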
# Description: SANGER: Inhibition of human SW1710 cell growth in a cell viability assay.
# [27] = test system: FaDu; assay: cells; assay type: functional, cell-based, Homo sapiens;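 note: cell viability readout of growth inhibition in FaDu cells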
# Description: SANGER: Inhibition of human FADU cell growth in a cell viability assay.
# [28] = test system: NCI-H650; assay: cells; assay type: functional, cell-based, Homo sapiens;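 note: growth inhibition of NCI-H650 cells, read out by a viability assay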
# Description: SANGER: Inhibition of human NCI-H650 cell growth in a cell viability assay.
# [29] = test system: NALM-6; assay: cells; assay type: functional, cell-based, Homo sapiens;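 note: growth inhibition of NALM-6 cells, read out with a cell viability assay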
# Description: SANGER: Inhibition of human NALM-6 cell growth in a cell viability assay.
# [30] = test system: NCI-H2405; assay: cells; assay type: functional, cell-based, Homo sapiens;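 note: growth inhibition of the human cell line, read out with a cell viability assay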
# Description: SANGER: Inhibition of human NCI-H2405 cell growth in a cell viability assay.
# [31] = test system: TCC-SUP; assay: cells; assay type: functional, cell-based, Homo sapiens;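 note: growth inhibition of TCC-SUP cells, read out with a cell viability assay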
# Description: SANGER: Inhibition of human TCCSUP cell growth in a cell viability assay.
# [32] = test system: NCI-H1623; assay: cells; assay type: functional, cell-based, Homo sapiens;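 note: cell viability assay used as the read-out for growth inhibition of NCI-H1623 cells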
# Description: SANGER: Inhibition of human NCI-H1623 cell growth in a cell viability assay.
# [33] = test system: MRK-nu-1; assay: cells; assay type: functional, cell-based, Homo sapiens;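 note: cell viability assay measuring growth suppression of human MRK-nu-1 cells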
# Description: SANGER: Inhibition of human MRK-nu-1 cell growth in a cell viability assay.
# [34] = test system: BT-20; assay: cells; assay type: functional, cell-based, Homo sapiens;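 note: cell viability assay measuring suppression of growth in human BT-20 cells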
# Description: SANGER: Inhibition of human BT-20 cell growth in a cell viability assay.
# [35] = test system: SW626; assay: cells; assay type: functional, cell-based, Homo sapiens;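 note: growth inhibition of SW626 cells, measured with a cell viability assay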
# Description: SANGER: Inhibition of human SW626 cell growth in a cell viability assay.
# [36] = test system: KU-19-19; assay: cells; assay type: functional, cell-based, Homo sapiens
# Description: SANGER: Inhibition of human KU-19-19 cell growth in a cell viability assay.
# [37] = test system: NCI-H889; assay: cells; assay type: functional, cell-based, Homo sapiens;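 note: cell growth inhibition of the cell line, read out with a viability assay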
# Description: SANGER: Inhibition of human NCI-H889 cell growth in a cell viability assay.
# [38] = test system: AGS; assay: cells; assay type: functional, cell-based, Homo sapiens;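 note: growth inhibition of AGS cells, determined with a cell viability assay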
# Description: SANGER: Inhibition of human AGS cell growth in a cell viability assay.
# [39] = test system: T-24; assay: cells; assay type: functional, cell-based, Homo sapiens;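 note: growth inhibition of T-24 cells, read out with a cell viability assay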
# Description: SANGER: Inhibition of human T-24 cell growth in a cell viability assay.
# [40] = test system: NCI-H322M; assay: cells; assay type: functional, cell-based, Homo sapiens;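 note: cell viability assay measuring inhibition of growth of human NCI-H322M cells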
# Description: SANGER: Inhibition of human NCI-H322M cell growth in a cell viability assay.
# [41] = test system: SNU-C1; assay: cells; assay type: functional, cell-based, Homo sapiens;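 note: growth inhibition of SNU-C1 human cells, read out by a cell viability assay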
# Description: SANGER: Inhibition of human SNU-C1 cell growth in a cell viability assay.
# [42] = test system: 8305C; assay: cells; assay type: functional, cell-based, Homo sapiens
# Description: SANGER: Inhibition of human 8305C cell growth in a cell viability assay.
# [43] = test system: P12-Ichikawa; assay: cells; assay type: functional, cell-based, Homo sapiens
# [44] = test system: RERF-LC-MS; assay: cells; assay type: functional, cell-based, Homo sapiens;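 note: growth inhibition of human RERF-LC-MS cells, read out by a cell viability assay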
# Description: SANGER: Inhibition of human RERF-LC-MS cell growth in a cell viability assay.
# [45] = test system: C3A; assay: cells; assay type: functional, cell-based, Homo sapiens;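 note: growth inhibition of C3A human cells, quantified with a cell viability readout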
# Description: SANGER: Inhibition of human C3A cell growth in a cell viability assay.
# [46] = test system: SKG-IIIa; assay: cells; assay type: functional, cell-based, Homo sapiens;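 note: cell growth inhibition, read out with a cell viability assay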
# Description: SANGER: Inhibition of human SKG-IIIa cell growth in a cell viability assay.
# [47] = test system: NB14; assay: cells; assay type: functional, cell-based, Homo sapiens; settings: Homo sapiens, NB14;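 note: growth inhibition of NB14 cells measured with a cell viability assay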
# Description: SANGER: Inhibition of human NB14 cell growth in a cell viability assay.
# [48] = test system: EW-22; assay: cells; assay type: functional, cell-based, Homo sapiens; settings: Homo sapiens, EW-22;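 note: growth inhibition of the EW-22 cell line, measured with a cell viability readout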
# Description: SANGER: Inhibition of human EW-22 cell growth in a cell viability assay.
compound,measurement,setting,value
COC1=CC(c2cc3ccccc3[nH]2)=N/C1=C\c1[nH]c(C)cc1C [OBATOCLAX MESYLATE],IC50,"[1]; Homo sapiens, RD",0.14 µM
same,IC50,"[2]; Homo sapiens, ARH-77",0.11 µM
same,IC50,"[3]; Homo sapiens, CAPAN-1",0.523 µM
same,IC50,"[4]; Homo sapiens, CAL-72",0.534 µM
same,IC50,"[5]; Homo sapiens, HCC1395",1.93 µM
same,IC50,"[6]; Homo sapiens, DMS-273",0.0285 µM
same,IC50,"[7]; Homo sapiens, COR-L279",0.572 µM
same,IC50,"[8]; Homo sapiens, SW48",0.773 µM
same,IC50,"[9]; Homo sapiens, SW948",7.58 µM
same,IC50,"[10]; Homo sapiens, LB647-SCLC",15.7 µM
same,IC50,"[11]; Homo sapiens, SiHa",3.12 µM
same,IC50,"[12]; Homo sapiens, HTC-C3",0.104 µM
same,IC50,"[13]; Homo sapiens, CAL-120",0.296 µM
same,IC50,"[14]; Homo sapiens, J82",0.109 µM
same,IC50,"[15]; Homo sapiens, JIYOYE",0.203 µM
same,IC50,"[16]; Homo sapiens, EFO-27",0.34 µM
same,IC50,[17]; Homo sapiens,0.828 µM
same,IC50,"[18]; Homo sapiens, MHH-CALL-2",0.609 µM
same,IC50,"[19]; Homo sapiens, NCI-H2452",> 16 µM
same,IC50,"[20]; Homo sapiens, OE19",1.66 µM
same,IC50,"[21]; Homo sapiens, ST486",< 0.0625 µM
same,IC50,"[22]; Homo sapiens, BCPAP",0.0589 µM
same,IC50,[23]; Homo sapiens,0.0837 µM
same,IC50,"[24]; Homo sapiens, HCC1419",1.83 µM
same,IC50,"[25]; Homo sapiens, NCI-H441",0.191 µM
same,IC50,"[26]; Homo sapiens, SW1710",0.0402 µM
same,IC50,"[27]; Homo sapiens, FaDu",0.426 µM
same,IC50,"[28]; Homo sapiens, NCI-H650",0.283 µM
same,IC50,"[29]; Homo sapiens, NALM-6",< 0.0625 µM
same,IC50,"[30]; Homo sapiens, NCI-H2405",0.347 µM
same,IC50,"[31]; Homo sapiens, TCC-SUP",1.25 µM
same,IC50,"[32]; Homo sapiens, NCI-H1623",3.09 µM
same,IC50,"[33]; Homo sapiens, MRK-nu-1",0.0494 µM
same,IC50,"[34]; Homo sapiens, BT-20",4.49 µM
same,IC50,"[35]; Homo sapiens, SW626",0.072 µM
same,IC50,"[36]; Homo sapiens, KU-19-19",0.646 µM
same,IC50,"[37]; Homo sapiens, NCI-H889",> 16 µM
same,IC50,"[38]; Homo sapiens, AGS",0.386 µM
same,IC50,"[39]; Homo sapiens, T-24",9.94 µM
same,IC50,"[40]; Homo sapiens, NCI-H322M",> 16 µM
same,IC50,"[41]; Homo sapiens, SNU-C1",> 16 µM
same,IC50,"[42]; Homo sapiens, 8305C",0.18 µM
same,IC50,"[43]; Homo sapiens, P12-Ichikawa",0.0735 µM
same,IC50,"[44]; Homo sapiens, RERF-LC-MS",1.06 µM
same,IC50,"[45]; Homo sapiens, C3A",0.374 µM
same,IC50,"[46]; Homo sapiens, SKG-IIIa",4.68 µM
Cn1cnc2c(F)c(Nc3ccc(Br)cc3Cl)c(C(=O)NOCCO)cc21 [SELUMETINIB],IC50,"[1]; Homo sapiens, RD",> 4 µM
same,IC50,[47],> 4 µM
same,IC50,"[3]; Homo sapiens, CAPAN-1",> 4 µM
same,IC50,"[4]; Homo sapiens, CAL-72",> 4 µM
same,IC50,"[5]; Homo sapiens, HCC1395",> 4 µM
same,IC50,"[6]; Homo sapiens, DMS-273",> 4 µM
same,IC50,"[8]; Homo sapiens, SW48",> 4 µM
same,IC50,"[9]; Homo sapiens, SW948",> 4 µM
same,IC50,"[11]; Homo sapiens, SiHa",> 4 µM
same,IC50,"[12]; Homo sapiens, HTC-C3",0.215 µM
same,IC50,"[13]; Homo sapiens, CAL-120",> 4 µM
same,IC50,"[16]; Homo sapiens, EFO-27",3.33 µM
same,IC50,"[19]; Homo sapiens, NCI-H2452",> 4 µM
same,IC50,"[20]; Homo sapiens, OE19",> 4 µM
same,IC50,"[22]; Homo sapiens, BCPAP",2.13 µM
same,IC50,[48],> 4 µM
same,IC50,[23]; Homo sapiens,> 4 µM
same,IC50,"[24]; Homo sapiens, HCC1419",> 4 µM
same,IC50,"[25]; Homo sapiens, NCI-H441",> 4 µM
same,IC50,"[26]; Homo sapiens, SW1710",> 4 µM
same,IC50,"[27]; Homo sapiens, FaDu",> 4 µM
same,IC50,"[28]; Homo sapiens, NCI-H650",> 4 µM
same,IC50,"[30]; Homo sapiens, NCI-H2405",> 4 µM
same,IC50,"[31]; Homo sapiens, TCC-SUP",> 4 µM
same,IC50,"[32]; Homo sapiens, NCI-H1623",> 4 µM
same,IC50,"[34]; Homo sapiens, BT-20",> 4 µM
same,IC50,"[35]; Homo sapiens, SW626",> 4 µM
same,IC50,"[36]; Homo sapiens, KU-19-19",3.42 µM
same,IC50,"[38]; Homo sapiens, AGS",1.12 µM
same,IC50,"[39]; Homo sapiens, T-24",> 4 µM
same,IC50,"[42]; Homo sapiens, 8305C",> 4 µM
same,IC50,"[43]; Homo sapiens, P12-Ichikawa",1.16 µM
same,IC50,"[44]; Homo sapiens, RERF-LC-MS",> 4 µM
same,IC50,"[45]; Homo sapiens, C3A",> 4 µM
same,IC50,"[46]; Homo sapiens, SKG-IIIa",> 4 µM
BLEOMYCIN,IC50,[1]; rd,106 µM
same,IC50,[2]; arh-77,0.105 µM
same,IC50,[3]; capan-1,2.92 µM
same,IC50,[4]; cal-72,580 µM
same,IC50,[5]; hcc1395,0.501 µM
same,IC50,[6]; dms-273,2.98 µM
same,IC50,[7]; cor-l279,25.4 µM
same,IC50,[8]; sw48,0.546 µM
same,IC50,[9]; sw948,354 µM
same,IC50,[10]; lb647-sclc,3.14 µM
same,IC50,[11]; siha,5170 µM
same,IC50,[12]; htc-c3,77.8 µM
same,IC50,[13]; cal-120,5.56 µM
same,IC50,[14]; j82,0.774 µM
same,IC50,[15]; jiyoye,3.38 µM
same,IC50,[16]; efo-27,0.571 µM
same,IC50,[17],0.131 µM
same,IC50,[18]; mhh-call-2,0.535 µM
same,IC50,[19]; nci-h2452,2140 µM
same,IC50,[20]; oe19,2.14 µM
same,IC50,[21]; st486,6.39 µM
same,IC50,[22]; bcpap,1.44 µM
same,IC50,[23],0.029 µM
same,IC50,[24]; hcc1419,253 µM
same,IC50,[25]; nci-h441,9.05 µM
same,IC50,[26]; sw1710,0.295 µM
same,IC50,[27]; fadu,5.14 µM
same,IC50,[28]; nci-h650,0.000587 µM
same,IC50,[29]; nalm-6,0.42 µM
same,IC50,[30]; nci-h2405,4.28 µM
same,IC50,[31]; tcc-sup,15.9 µM
same,IC50,[32]; nci-h1623,39 µM
same,IC50,[33]; mrk-nu-1,1.45 µM
same,IC50,[34]; bt-20,2.77 µM
same,IC50,[35]; sw626,1.41 µM
same,IC50,[36]; ku-19-19,525 µM
same,IC50,[37]; nci-h889,513 µM
same,IC50,[38]; ags,0.503 µM
same,IC50,[39]; t-24,0.72 µM
same,IC50,[40]; nci-h322m,7320 µM
same,IC50,[41]; snu-c1,82 µM
same,IC50,[42]; 8305c,0.804 µM
same,IC50,[43]; p12-ichikawa,5.55 µM
same,IC50,[44]; rerf-lc-ms,48.7 µM
same,IC50,[45]; c3a,0.296 µM
same,IC50,[46]; skg-iiia,136 µM
